Experimental data as given in patent US20070185150A1, “Therapeutic methods” (priority 2005, published 2007).

Experiments:
[1] = Phase I dose escalation trial of oral AP23573: safety, tolerability and maximum tolerated dose; assay type: in vivo, patients
Source text: Background: In phase I clinical trials with an intravenous (IV) formulation of the mTOR inhibitor, AP23573, the drug was well-tolerated and active in a broad range of cancers. This trial is undertaken to assess the safety, tolerability and maximum tolerated dose (MTD) of an orally administered dosage form of AP23573. Secondary objectives include characterization of the pharmacokinetic (PK) and pharmacodynamic (PD) profiles of AP23573, as well as antitumor activity.
(§1) Methods: Eligible patients (in cohorts of at least 3 patients) initially are randomized at the same flat, fixed starting dose of 20 mg/day into one of three 28-day dosing schedules, i.e. once daily continuous dosing for 4 days every week (QD×4), 21 of 28 days (QD×21), or all 28 days (QD×28). The subsequent dose level is determined based on review of safety and tolerability during Cycle 1 and enrollment for each schedule proceeds independently. Antitumor activity is assessed every 2 cycles. Whole blood is collected for PK assessment and peripheral blood mononuclear cells collected for PD assessment of the levels of phosphorylated 4E-BP1, a downstream target of mTOR.

[2] = Additional clinical studies of oral AP23573 on QD×5 schedule: tolerability; assay type: in vivo
Procedure: (§2) Additional clinical studies of AP23573 were conducted using a QD×5 dosing schedule for the delivery of 30, 40 or 50 mg of AP23573/day. A set of patients receiving the 30 mg and 50 mg doses were also given a loading dose on the first day of each week, which doubled the dose that day to 60 and 100 mg, respectively.
(§3) Methods: In a Phase 1/2a trial of single-agent oral AP23573, 17 patients, 9 of whom are sarcoma patients, were studied at the chosen dose and schedule (40 mg QD×5). In addition, of 7 patients who began dosing at 50 mg QD×5, 4 patients (2 of whom are sarcoma patients) underwent dose reduction to 40 mg. Twenty-one patients, therefore, received 40 mg QD×5, of whom 11 are sarcoma patients.
(§4) In another QD×5 study in which the dose on day 1 of each week was doubled (to comprise a loading dose), 7 patients (6 sarcoma patients) received doses of 60, 30, 30, 30 and 30 mg over each week (i.e., 30 mg QD×5, with the dose on day 1 doubled). Five other patients (2 sarcoma patients) received 50 mg QD×5, with the dose on day 1 doubled to 100 mg.
(§5) Overall, 36 patients were dosed on a QD×5 schedule, of whom 12 received loading doses on day 1 of each week.

[3] = Phase I trial of oral AP23573: whole blood PK assessment; assay type: in vivo, patients; details: three schedules, 20 mg/day, Day 1 of Cycle 1, preliminary PK analysis
Procedure: as §1

[4] = tested on: refractory or advanced malignancies; test: Phase I trial of oral AP23573: antitumor activity assessed every 2 cycles; assay type: in vivo, patients
Procedure: as §1

[5] = tested on: sarcoma and other tumors; test: Additional clinical studies of oral AP23573 on QD×5 schedule: anti-tumor activity (Clinical Benefit Response); assay type: in vivo, patients; details: QD×5 schedules
Procedure: as §2, §3, §4, §5

[6] = tested on: phosphorylated 4E-BP1, a downstream target of mTOR; test: Phase I trial of oral AP23573: PD assessment of phosphorylated 4E-BP1 levels in peripheral blood mononuclear cells; assay type: in vivo, patients
Procedure: as §1

CO[C@H]1C[C@@H]2CC[C@@H](C)[C@@](O)(O2)C(=O)C(=O)N2CCCC[C@H]2C(=O)O[C@H]([C@H](C)C[C@@H]2CC[C@@H](OP(C)(C)=O)[C@H](OC)C2)CC(=O)[C@H](C)/C=C(\C)[C@@H](O)[C@@H](OC)C(=O)[C@H](C)C[C@H](C)/C=C/C=C/C=C/1C [AP23573]
dose-limiting toxicity (DLT) ([1]; QD×4 20 mg/day cohort): no dose-limiting toxicity (DLT) was reported | dose-limiting toxicity (DLT) ([1]; QD×4 30 mg/day schedule): no DLTs | side effects ([1]; QD×4 60 and 70 mg/day cohort): side effects were reported | maximum tolerated daily dose ([1]; QD×4 schedule): 50 mg/day | dose-limiting toxicity (DLT) ([1]; QD×21 cohort, 20 mg/day): severe stomatitis and fatigue | maximum tolerated daily dose ([1]; QD×21 schedule): 10 mg/day | dose-limiting toxicity (DLT) ([1]; QD×28 cohort, 20 mg/day): severe stomatitis and fatigue | maximum tolerated daily dose ([1]; QD×28 schedule): 15 mg/day | severity of adverse events related to AP23573 during Cycle 1 ([1]; three schedules): mild or moderate in severity, reversible | adverse events related to AP23573 during Cycle 1 in at least 2 patients ([1]; three schedules, 10 to 30 mg/day): mucositis, fatigue, rash, diarrhea, anorexia, and nausea | side-effects ([2]; 40 mg QD×5): generally mild or moderate and manageable | tolerability of dose level ([2]; 50 mg QD×5 with the dose on day 1 doubled to 100 mg): exceed the maximum tolerated dose | Cmax range [3]: 77 to 163 ng/mL | median Cmax [3]: 98.5 ng/mL | antitumor activity (decrease) ([4]; patient with metastatic breast carcinoma, qd×4, 20 mg/day cohort): 22% | antitumor activity (decrease) ([4]; patient with metastatic renal cell carcinoma, qd×21, 20 mg/day cohort): 21% | disease status ([4]; patient with soft tissue sarcoma, QD×4, 20 mg/day cohort, after 2 cycles): stable disease | evaluable sarcoma patients that were CBRs [5]: 43% | patients achieving a Clinical Benefit Response (CBR) ([5]; of the 26 evaluable patients): Seven | reduction of phosphorylated 4E-BP1 levels ([6]; 1 day after dosing): > 80% | phosphorylated 4E-BP1 levels during the dosing period ([6]; during the dosing period): remain reduced during the dosing period
